{"source": "patent US20230088267A1", "about": "“Dual chamber electronic nicotine delivery system with puff duration control and timed lockout and just-in-time adaptive intervention to treat nicotine dependence in cigarette smokers” (Virginia Commonwealth University, priority 2021, published 2023)", "origin": "cited, not measured here", "data": [{"smiles": "CN1CCC[C@H]1c1cccnc1", "note": "[nicotine, L-nicotine]", "values": [{"measurement": "pka of the second nitrogen atom, located in the aromatic pyridine moiety", "setting": "pyridine nitrogen, protonated under acidic conditions", "value": 3.10}, {"measurement": "pka of the nitrogen atom in the pyrrolidine moiety", "setting": "pyrrolidine nitrogen, basic", "value": 8.01}]}]}
